# Test results as given in publication PMC12888861, “Antibacterial activity of enmetazobactam against Acinetobacter spp.: a molecular dissection of mechanism of action and resistance determinants” (Antimicrobial Agents and Chemotherapy, 2025).
# Like-named read-outs stand apart in the source and are kept apart here.
# System: A. non-baumannii isolates (n = 87)
# Assay: MIC, broth microdilution (EUCAST), A. non-baumannii isolates
# Type: cell-based, Acinetobacter spp. (non-baumannii)
# Text: The bacterial strains used in this study comprised 208 clinical isolates from the Spanish National Acinetobacter spp. 2020 Multicenter Collection, which was previously characterized in detail by our research group, including whole-genome sequencing, phylogenetics studies, clonal dynamics, and resistance mechanisms ([2], [29]). Additionally, a collection of A. baumannii ATCC 17978 transformants coding the blaOXA-23, blaOXA-24/40, blaOXA-51, blaOXA-58, blaOXA-143, and blaOXA-201 genes, previously constructed and described by our group ([30]), was used to determine the activity of enmetazobactam against strains carrying the main CHDLs of A. baumannii.
# The antimicrobial susceptibility of the 208 Acinetobacter spp. isolates was assessed using the broth microdilution method, as described in the European Committee on Antimicrobial Susceptibility Testing (EUCAST) v.15 guidelines (http://www.eucast.org/clinical_breakpoints). […] MICs for enmetazobactam alone were assessed as well. […] Subsequently, MIC testing was also conducted with a collection of A. baumannii ATCC 17978 transformants expressing clinically relevant OXA-like carbapenemase genes.
# The A. baumannii ATCC 19606 strain was used as the reference strain in all susceptibility experiments, in duplicate assays. Antibiotics were purchased from Sigma-Aldrich, except enmetazobactam and durlobactam, which were obtained from Advanz Pharma and MedChemExpress, respectively.
smiles,measurement,setting,value
C[n+]1ccn(C[C@@]2(C)[C@H](C(=O)[O-])N3C(=O)C[C@H]3S2(=O)=O)n1 [enmetazobactam],MIC distribution 0.12,,0
same,MIC,"Acinetobacter baylyi, isolate NO-Ab27, Acinetobacter baylyi, in combinations ETZ fixed at 8 mg/L, read-out: MIC",2 µg/mL
same,MIC,"Acinetobacter beijerinckii, isolate NO-Ab122, Acinetobacter beijerinckii, in combinations ETZ fixed at 8 mg/L, read-out: MIC",2 µg/mL
same,MIC,"Acinetobacter bereziniae, isolate NO-Ab70, Acinetobacter bereziniae, in combinations ETZ fixed at 8 mg/L, read-out: MIC",1 µg/mL
same,MIC,"Acinetobacter bereziniae, isolate NO-Ab84, Acinetobacter bereziniae, in combinations ETZ fixed at 8 mg/L, read-out: MIC",1 µg/mL
same,MIC,"Acinetobacter bereziniae, isolate NO-Ab104, Acinetobacter bereziniae, in combinations ETZ fixed at 8 mg/L, read-out: MIC",1 µg/mL
same,MIC,"Acinetobacter bereziniae, isolate NO-Ab114, Acinetobacter bereziniae, in combinations ETZ fixed at 8 mg/L, read-out: MIC",1 µg/mL
same,MIC,"Acinetobacter bereziniae, isolate NO-Ab115, Acinetobacter bereziniae, in combinations ETZ fixed at 8 mg/L, read-out: MIC",1 µg/mL
same,MIC,"Acinetobacter bereziniae, isolate NO-Ab116, Acinetobacter bereziniae, in combinations ETZ fixed at 8 mg/L, read-out: MIC",1 µg/mL
same,MIC,"Acinetobacter bereziniae, isolate NO-Ab117, Acinetobacter bereziniae, in combinations ETZ fixed at 8 mg/L, read-out: MIC",2 µg/mL
same,MIC,"Acinetobacter bereziniae, isolate NO-Ab129, Acinetobacter bereziniae, in combinations ETZ fixed at 8 mg/L, read-out: MIC",1 µg/mL
same,MIC,"Acinetobacter bereziniae, isolate NO-Ab156, Acinetobacter bereziniae, in combinations ETZ fixed at 8 mg/L, read-out: MIC",4 µg/mL
same,MIC,"Acinetobacter calcoaceticus, isolate NO-Ab85, Acinetobacter calcoaceticus, in combinations ETZ fixed at 8 mg/L, read-out: MIC",4 µg/mL
same,MIC,"Acinetobacter calcoaceticus, isolate NO-Ab94, Acinetobacter calcoaceticus, in combinations ETZ fixed at 8 mg/L, read-out: MIC",2 µg/mL
same,MIC,"Acinetobacter calcoaceticus, isolate NO-Ab108, Acinetobacter calcoaceticus, in combinations ETZ fixed at 8 mg/L, read-out: MIC",4 µg/mL
same,MIC,"Acinetobacter calcoaceticus, isolate NO-Ab161, Acinetobacter calcoaceticus, in combinations ETZ fixed at 8 mg/L, read-out: MIC",8 µg/mL
same,MIC,"Acinetobacter calcoaceticus, isolate NO-Ab198, Acinetobacter calcoaceticus, in combinations ETZ fixed at 8 mg/L, read-out: MIC",4 µg/mL
same,MIC,"Acinetobacter calcoaceticus, isolate NO-Ab205, Acinetobacter calcoaceticus, in combinations ETZ fixed at 8 mg/L, read-out: MIC",4 µg/mL
same,MIC,"Acinetobacter calcoaceticus, isolate NO-Ab211, Acinetobacter calcoaceticus, in combinations ETZ fixed at 8 mg/L, read-out: MIC",4 µg/mL
same,MIC,"Acinetobacter courvalinii, isolate NO-Ab216, Acinetobacter courvalinii, in combinations ETZ fixed at 8 mg/L, read-out: MIC",1 µg/mL
same,MIC,"Acinetobacter dispersus, isolate NO-Ab2, Acinetobacter dispersus, in combinations ETZ fixed at 8 mg/L, read-out: MIC",2 µg/mL
same,MIC,"Acinetobacter guillouiae, isolate NO-Ab69, Acinetobacter guillouiae, in combinations ETZ fixed at 8 mg/L, read-out: MIC",2 µg/mL
same,MIC,"Acinetobacter guillouiae, isolate NO-Ab74, Acinetobacter guillouiae, in combinations ETZ fixed at 8 mg/L, read-out: MIC",2 µg/mL
same,MIC,"Acinetobacter haemolyticus, isolate NO-Ab92, Acinetobacter haemolyticus, in combinations ETZ fixed at 8 mg/L",1 µg/mL
same,MIC,"Acinetobacter haemolyticus, isolate NO-Ab177, Acinetobacter haemolyticus, in combinations ETZ fixed at 8 mg/L",1 µg/mL
same,MIC,"Acinetobacter haemolyticus, isolate NO-Ab217, Acinetobacter haemolyticus, in combinations ETZ fixed at 8 mg/L",0.5 µg/mL
same,MIC,"Acinetobacter johnsonii, isolate NO-Ab101, Acinetobacter johnsonii, in combinations ETZ fixed at 8 mg/L, read-out: MIC",4 µg/mL
same,MIC,"Acinetobacter junii, isolate NO-Ab76, Acinetobacter junii, in combinations ETZ fixed at 8 mg/L, read-out: MIC",2 µg/mL
same,MIC,"Acinetobacter junii, isolate NO-Ab77, Acinetobacter junii, OXA-24/40, in combinations ETZ fixed at 8 mg/L, read-out: MIC",2 µg/mL
same,MIC,"Acinetobacter lactucae, isolate NO-Ab60, Acinetobacter dijkshoorniae, in combinations ETZ fixed at 8 mg/L, read-out: MIC",4 µg/mL
same,MIC,"Acinetobacter lactucae, isolate NO-Ab63, Acinetobacter dijkshoorniae, in combinations ETZ fixed at 8 mg/L, read-out: MIC",4 µg/mL
same,MIC,"Acinetobacter lactucae, isolate NO-Ab65, Acinetobacter dijkshoorniae, in combinations ETZ fixed at 8 mg/L, read-out: MIC",4 µg/mL
same,MIC,"Acinetobacter lactucae, isolate NO-Ab86, Acinetobacter dijkshoorniae, in combinations ETZ fixed at 8 mg/L, read-out: MIC",2 µg/mL
same,MIC,"Acinetobacter lactucae, isolate NO-Ab88, Acinetobacter dijkshoorniae, in combinations ETZ fixed at 8 mg/L, read-out: MIC",2 µg/mL
same,MIC,"Acinetobacter lactucae, isolate NO-Ab91, Acinetobacter dijkshoorniae, in combinations ETZ fixed at 8 mg/L, read-out: MIC",2 µg/mL
same,MIC,"Acinetobacter lactucae, isolate NO-Ab121, Acinetobacter dijkshoorniae, in combinations ETZ fixed at 8 mg/L, read-out: MIC",2 µg/mL
same,MIC,"Acinetobacter lactucae, isolate NO-Ab125, Acinetobacter dijkshoorniae, in combinations ETZ fixed at 8 mg/L, read-out: MIC",1 µg/mL
same,MIC,"Acinetobacter lactucae, isolate NO-Ab160, Acinetobacter dijkshoorniae, in combinations ETZ fixed at 8 mg/L, read-out: MIC",4 µg/mL
same,MIC,"Acinetobacter nosocomialis, isolate NO-Ab43, Acinetobacter nosocomialis, in combinations ETZ fixed at 8 mg/L, read-out: MIC",2 µg/mL
same,MIC,"Acinetobacter nosocomialis, isolate NO-Ab68, Acinetobacter nosocomialis, OXA-24/40, in combinations ETZ fixed at 8 mg/L, read-out: MIC",16 µg/mL
same,MIC,"Acinetobacter nosocomialis, isolate NO-Ab98, Acinetobacter nosocomialis, in combinations ETZ fixed at 8 mg/L, read-out: MIC",2 µg/mL
same,MIC,"Acinetobacter nosocomialis, isolate NO-Ab208, Acinetobacter nosocomialis, in combinations ETZ fixed at 8 mg/L, read-out: MIC",2 µg/mL
same,MIC,"Acinetobacter pittii, MBC set, isolate NO-Ab89, A. pittii, read-out: MIC",2 µg/mL
same,MIC,"Acinetobacter pittii, isolate NO-Ab59, Acinetobacter pittii, in combinations ETZ fixed at 8 mg/L, read-out: MIC",2 µg/mL
same,MIC,"Acinetobacter pittii, isolate NO-Ab66, Acinetobacter pittii, in combinations ETZ fixed at 8 mg/L, read-out: MIC",2 µg/mL
same,MIC,"Acinetobacter pittii, isolate NO-Ab73, Acinetobacter pittii, in combinations ETZ fixed at 8 mg/L, read-out: MIC",2 µg/mL
same,MIC,"Acinetobacter pittii, isolate NO-Ab75, Acinetobacter pittii, in combinations ETZ fixed at 8 mg/L, read-out: MIC",2 µg/mL
same,MIC,"Acinetobacter pittii, isolate NO-Ab78, Acinetobacter pittii, in combinations ETZ fixed at 8 mg/L, read-out: MIC",2 µg/mL
same,MIC,"Acinetobacter pittii, isolate NO-Ab82, Acinetobacter pittii, in combinations ETZ fixed at 8 mg/L, read-out: MIC",2 µg/mL
same,MIC,"Acinetobacter pittii, isolate NO-Ab89, Acinetobacter pittii, in combinations ETZ fixed at 8 mg/L, read-out: MIC",2 µg/mL
same,MIC,"Acinetobacter pittii, isolate NO-Ab90, Acinetobacter pittii, in combinations ETZ fixed at 8 mg/L, read-out: MIC",2 µg/mL
